Structures are written as SMILES. pEC50, pIC50: −log10 of the molar value. Bounds are passed on as bounds.

Experiment [1] concerns A549. Description: A549 EC50 (cell assay, method not described). The format is cell-based.
Experiment [2] concerns the target T1, 15-PGDH/HPGD (Homo sapiens, UniProt P15428).
T1 construct: purchased R&D System 5660-DH
T1 sequence (P15428 1-266): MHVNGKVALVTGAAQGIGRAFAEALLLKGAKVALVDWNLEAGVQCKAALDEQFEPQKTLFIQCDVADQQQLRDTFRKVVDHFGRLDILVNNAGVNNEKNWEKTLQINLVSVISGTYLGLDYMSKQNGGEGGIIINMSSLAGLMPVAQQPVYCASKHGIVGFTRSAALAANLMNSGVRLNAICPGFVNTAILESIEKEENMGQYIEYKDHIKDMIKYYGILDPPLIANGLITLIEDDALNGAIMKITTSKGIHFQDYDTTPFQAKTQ
Description: hPGDH inhibitor screening biochemical assay. Conditions: 10 nM enzyme, 15 μM Prostaglandin E2, 0.25 mM NAD, fluorescence ex/em 340/485 nm. As to the method:
A hydroxyprostaglandin dehydrogenase inhibition screening biochemical assay can be performed to assess the synthesized inhibitors provided herein. Provided herein is an exemplary biochemical assay for hPGDH inhibitor screening.
The in vitro biochemical assay can be performed in white, 384 plates in total 20 μl reaction volume consisting of 10 nM of 15-PGDH/HPGD (R&D System #5660-DH), 15 μM Prostaglandin E2 (Sigma, Cat #P5640-10 MG) and 0.25 mM B-Nicotinamide adenine dinucleotide sodium salt (Sigma, Cat #N0632-5G) made in reaction buffer (50 mM Tris-HCl, pH 7.5, 0.01% Tween 20) at 10-point dose response curve for test/tool compounds. Briefly, 5 μl (4×) of compounds solution and 5 μl (final concentration, 10 nM) of enzyme solution is added to white 384 well plates and incubated for 10 mins at 37° C. 5 μl (4×) of Prostaglandin E2 and 5 μl (4×) of β-Nicotinamide adenine dinucleotide sodium salt is added to the wells and incubated for 10 mins at room temperature. Fluorescence is recorded at ex/em=340 nm/485 nm.

As to `CC(C)(C)OC[C@H](O)c1cnc2c(ccn2-c2cccc(-c3nnc[nH]3)c2)n1` [Compound 26A], in experiment [1] (Homo sapiens, A549, A549), the pEC50 is 6.00 to 7.00. Besides, the pIC50 in experiment [2] was > 7.00.
On to `CCOC(C)(C)C(O)c1cnc2c(cnn2-c2cccc(-c3nnc[nH]3)c2)c1` (single isomer, unassigned) [Compound 34B], for which the pEC50 in experiment [1] (A549) was ≤ 6.00. Moreover, the negative-log IC50 (pIC50) in experiment [2] is 6.00 to 7.00.
As for `CC(C)(O)CC[C@H](O)c1cnc2c(cnn2-c2cccc(-c3nnc[nH]3)c2)c1` [Compound 56A], the pEC50 in experiment [1] (Homo sapiens, A549, A549) was 6.00 to 7.00. Further, in experiment [2], the pIC50 was > 7.00.
On to `CC(C)(OCC(F)F)[C@@H](O)c1cnc2c(cnn2-c2cccc(-c3nnc[nH]3)c2)c1` [Compound 61A], for which the pEC50 in experiment [1] (Homo sapiens, A549, A549) was > 7.00. Also, in experiment [2], the negative logarithm of the IC50 (pIC50) is > 7.00.
In the case of `OC1(c2cnc3c(ccn3-c3cc(Cl)cc(-c4nnc[nH]4)c3)c2)CCCC1` [Compound 13], in experiment [2], the pIC50 is 6.00 to 7.00.
`O[C@H](c1cnc2c(cnn2-c2cccc(-c3nnc[nH]3)c2)c1)[C@H]1CCOC1` [Compound 68B]: in experiment [1] (Homo sapiens, A549, A549), the pEC50 was > 7.00. The pIC50 in experiment [2] is > 7.00.
With `CC(F)(F)[C@@H](O)c1cnc2c(ccn2-c2cccc(-c3nnc[nH]3)c2)c1` [Compound 5A], the pEC50 in experiment [1] (Homo sapiens, A549, A549) was > 7.00. In addition, the pIC50 in experiment [2] was > 7.00.
In experiment [1] (Homo sapiens, A549, A549), `O[C@H](c1cnc2c(cnn2-c2cccc(-c3nnc[nH]3)c2)c1)C1CCOCC1` [Compound 52A] gave a pEC50 of 6.00 to 7.00. Besides, the pIC50 in experiment [2] is > 7.00.
Consider `CC(O)(c1cnc2c(ccn2-c2cccc(-c3nnc[nH]3)c2)c1)C1CCCC1` (single isomer, unassigned) [Compound 11B], for which the pIC50 in experiment [2] is ≤ 6.00.
`CNC(=O)c1ccc(-n2ncc3cc([C@@H](O)COC(C)C)cnc32)cc1` [Compound 67B] had a negative logarithm of the EC50 (pEC50) in experiment [1] (Homo sapiens, A549, A549) of 6.00 to 7.00. The pIC50 in experiment [2] was > 7.00.
Regarding `CCCC(F)(F)[C@H](O)c1cnc2c(ccn2-c2cccc(-c3nnc[nH]3)c2)n1` [Compound 35B], the pEC50 in experiment [1] (Homo sapiens, A549, A549) is ≤ 6.00. In addition, the pIC50 in experiment [2] was 6.00 to 7.00.
Consider `O=C(O)c1ccc(-n2ncc3cc([C@@H](O)COC4CCCC4)cnc32)cc1` [Compound 89A], for which the pEC50 in experiment [1] (Homo sapiens, A549, A549) was ≤ 6.00. Besides, the pIC50 in experiment [2] is > 7.00.
As to `CC1(C)CC(OC[C@H](O)c2cnc3c(cnn3-c3ccc(C(=O)O)cc3)c2)C1` [Compound 105A], the pEC50 in experiment [1] (Homo sapiens, A549, A549) is 6.00 to 7.00.
For `CC(C)OCC(O)c1cnc2c(cnn2-c2cccc(-c3nnc[nH]3)c2)c1` (single isomer, unassigned) [Compound 18A], the pEC50 in experiment [1] (A549) is > 7.00. Further, the negative logarithm of the IC50 (pIC50) in experiment [2] was > 7.00.
`O=C(O)c1ccc(-n2ccc3nc([C@@H](O)C4CC(F)(F)C4)cnc32)cc1` [Compound 46B]: the pEC50 in experiment [1] (Homo sapiens, A549, A549) was 6.00 to 7.00. Besides, the pIC50 in experiment [2] is > 7.00.
`CCCOC(C)(C)[C@H](O)c1cnc2c(cnn2-c2cccc(-c3nnc[nH]3)c2)c1` [Compound 57A]: the negative logarithm of the EC50 (pEC50) in experiment [1] (Homo sapiens, A549, A549) was ≤ 6.00. For the same compound, the pIC50 in experiment [2] is ≤ 6.00.
In turn, `CC(C)OC[C@H](O)c1cnc2c(cnn2-c2ccc(C(=O)O)cc2)c1` [Compound 48A] gave a pEC50 in experiment [1] (Homo sapiens, A549, A549) of 6.00 to 7.00. Moreover, the pIC50 in experiment [2] is > 7.00.
The like results for `COCCNC(=O)c1ccc(-n2ncc3cc([C@@H](O)COC4CCC4)cnc32)cc1` [Compound 118A] were, in that order, > 7.00 and > 7.00.
On to `O[C@H](c1cnc2c(cnn2-c2cccc(-c3nnc[nH]3)c2)c1)C1CCCC1` [Compound 9A], for which, in experiment [1] (Homo sapiens, A549, A549), the negative logarithm of the EC50 (pEC50) was > 7.00.
For `CC(C)OC[C@@H](O)c1cnc2c(cnn2-c2ccc(OCC(=O)O)cc2)c1` [Compound 78B], in experiment [2], the pIC50 was > 7.00.
Regarding `CS(=O)(=O)c1cccc(-n2ncc3cc([C@@H](O)COC4CCC4)cnc32)c1` [Compound 123A], in experiment [1] (Homo sapiens, A549, A549), the pEC50 is 6.00 to 7.00.
Take `CS(=O)(=O)c1cccc(-n2ncc3cc([C@H](O)COC4CCC4)cnc32)c1` [Compound 123B]: in experiment [1] (Homo sapiens, A549, A549), the pEC50 is ≤ 6.00.
In turn, `CC(O)(c1cnc2c(ccn2-c2cccc(-c3nnc[nH]3)c2)c1)C1CCCC1` (single isomer, unassigned) [Compound 11A] had a pIC50 in experiment [2] of 6.00 to 7.00.
As to `O=C(O)c1ccc(-n2ncc3cc([C@@H](O)COC4CC(F)(F)C4)cnc32)cc1` [Compound 91A], the pEC50 in experiment [1] (Homo sapiens, A549, A549) was ≤ 6.00.
Still for that read-out and setting: then `O=C(O)c1ccc(-n2ncc3cc([C@@H](O)C4CC(F)(F)C4)cnc32)cn1` [Compound 97B], with > 7.00; and `O=C(O)c1ccc(-n2ncc3cc([C@H](O)C4CC(F)(F)C4)cnc32)cn1` [Compound 97A], with ≤ 6.00.
Take `CC(C)(C)OC[C@H](O)c1cnc2c(ccn2-c2cccc(-c3nnc[nH]3)c2)c1` [Compound 31A]: the negative logarithm of the IC50 (pIC50) in experiment [2] was > 7.00.
Consider `O=C(O)CCc1ccc(-n2ncc3cc([C@H](O)COC4CC4)cnc32)cc1F` [Compound 86B], for which the pIC50 in experiment [2] was > 7.00.
`CCCCC(F)(F)[C@H](O)c1cnc2c(ccn2-c2cccc(-c3nnc[nH]3)c2)c1` [Compound 8B]: the pEC50 in experiment [1] (Homo sapiens, A549, A549) is 6.00 to 7.00.
Regarding `O=C(O)c1ccc(-n2ccc3cc([C@@H](O)[C@@H]4CCCO4)cnc32)cc1` [Compound 98A], the pEC50 in experiment [1] (Homo sapiens, A549, A549) was ≤ 6.00.
Take `CC(C)OC[C@H](O)c1cnc2c(cnn2-c2ccc(CCCC(=O)O)c(F)c2)c1` [Compound 77B]: the pIC50 in experiment [2] is > 7.00.
In experiment [1] (Homo sapiens, A549, A549), `Cc1nn(-c2ccc(C(=O)O)cc2)c2ncc([C@@H](O)COC3CCCC3)cc12` [Compound 104A] gave a negative-log EC50 (pEC50) of 6.00 to 7.00.
The same measure, in the same setting: then `Cc1nn(-c2ccc(C(=O)O)cc2)c2ncc([C@@H](O)C3CC(F)(F)C3)cc12` [Compound 102B], with 6.00 to 7.00.
On the same count and under the same terms, then `OC(c1cnc2c(ccn2-c2cccc(-c3nnc[nH]3)c2)c1)C1CC(F)(F)C1` (stereo in doubt) [Compound 7A, (R)-(3,3-difluorocyclobutyl)-[1-[3-(4H-1,2,4-triazol-3-yl)phenyl]pyrrolo[2,3-b]pyridin-5-yl]methanol], with > 7.00; and `O=C(O)c1ccc(-n2ccc3cc([C@H](O)[C@H]4CCCO4)cnc32)cc1` [Compound 100B], with > 7.00.
With `O[C@@H](c1cnc2c(cnn2-c2cccc(-c3nnc[nH]3)c2)c1)C1CCCC1` [Compound 9B], the negative logarithm of the EC50 (pEC50) in experiment [1] (Homo sapiens, A549, A549) is > 7.00.
As for `OC(c1cnc2c(ccn2-c2cccc(-c3nnc[nH]3)c2)c1)C1CC(F)(F)C1` (stereo in doubt) [Compound 7B, (S)-(3,3-difluorocyclobutyl)-[1-[3-(4H-1,2,4-triazol-3-yl)phenyl]pyrrolo[2,3-b]pyridin-5-yl]methanol], the pEC50 in experiment [1] (Homo sapiens, A549, A549) is > 7.00.
Take `O=C(O)CCc1ccc(-n2ncc3cc([C@H](O)COC4CCC4)cnc32)cc1F` [Compound 82B]: the pEC50 in experiment [1] (Homo sapiens, A549, A549) is ≤ 6.00.
As for `Cc1nn(-c2ccc(C(=O)O)cc2)c2ncc([C@H](O)C3CC(F)(F)C3)cc12` [Compound 102A], the pEC50 in experiment [1] (Homo sapiens, A549, A549) is ≤ 6.00.
`CCCCC(F)(F)[C@@H](O)c1cnc2c(ccn2-c2cccc(-c3nnc[nH]3)c2)c1` [Compound 8A]: in experiment [1] (Homo sapiens, A549, A549), the pEC50 was > 7.00.
Turning to `O[C@@H](COC1CCC1)c1cnc2c(cnn2-c2ccc(-c3nnn[nH]3)cc2)c1` [Compound 79B], the pIC50 in experiment [2] is > 7.00.
Turning to `O=C(O)c1ccc(-n2ccc3cc([C@H](O)[C@@H]4CCCO4)cnc32)cc1` [Compound 98B], the pEC50 in experiment [1] (Homo sapiens, A549, A549) is > 7.00.
`Cc1nn(-c2ccc(C(=O)O)cc2)c2ncc([C@H](O)COC3CCCC3)cc12` [Compound 104B]: the negative-log EC50 (pEC50) in experiment [1] (Homo sapiens, A549, A549) was 6.00 to 7.00.
On the same count and under the same terms, then `CC1(C)CC(OC[C@@H](O)c2cnc3c(cnn3-c3ccc(C(=O)O)cc3)c2)C1` [Compound 105B], with > 7.00.
Regarding `CC(C)(O)c1cnc2c(cnn2-c2cc(Cl)cc(-c3nnc[nH]3)c2)c1` [Compound 19, 2-[1-[3-chloro-5-(4H-1,2,4-triazol-3-yl)phenyl]pyrazolo[3,4-b]pyridin-5-yl]propan-2-ol], the pIC50 in experiment [2] was ≤ 6.00.
Consider `O=C(O)c1ccc(-n2ccc3cc([C@@H](O)COC4CCC4)cnc32)cc1` [Compound 103A], for which the pEC50 in experiment [1] (Homo sapiens, A549, A549) was > 7.00.
Regarding `O=C(O)c1ccc(-n2ncc3cc([C@@H](O)COCC4CCC4)cnc32)cc1` [Compound 101A], the pEC50 in experiment [1] (Homo sapiens, A549, A549) was > 7.00.
In the case of `O=C(O)c1ccc(-n2ncc3cc([C@@H](O)C4COC4)ccc32)cc1` [Compound 120B], the pIC50 in experiment [2] was 6.00 to 7.00.
Compound `O=C(O)c1ccc(-n2ccc3cc([C@H](O)COC4CCC4)cnc32)cc1` [Compound 103B] gave a pEC50 in experiment [1] (Homo sapiens, A549, A549) of 6.00 to 7.00.
Same read-out and setting: then `O=C(O)c1ccc(-n2ccc3cc([C@@H](O)[C@H]4CCCO4)cnc32)cc1` [Compound 100A], with ≤ 6.00.
`CC(C)(O)c1cnc2c(ccn2-c2cc(Cl)cc(-c3nnc[nH]3)c2)c1` [Compound 14] had a pIC50 in experiment [2] of 6.00 to 7.00.
Consider `O=C(O)c1ccc(-n2ncc3cc([C@H](O)COC4CC(F)(F)C4)cnc32)cc1` [Compound 91B], for which, in experiment [1] (Homo sapiens, A549, A549), the pEC50 was ≤ 6.00.
`O[C@@H](c1cnc2c(ccn2-c2cccc(-c3nnc[nH]3)c2)c1)C1CCCC1` [Compound 6B] showed a pEC50 in experiment [1] (Homo sapiens, A549, A549) of 6.00 to 7.00.
Turning to `O[C@H](c1cnc2c(ccn2-c2cccc(-c3nnc[nH]3)c2)c1)C1CCCC1` [Compound 6A], in experiment [1] (Homo sapiens, A549, A549), the pEC50 was > 7.00.

Values taken from patent US20260234139A1, “PGDH INHIBITORS AND METHODS OF MAKING AND USING” (Epirium Bio Inc., priority 2023, published 2026).
